In the supplement of paper PMC13380429:

How the values were obtained:
Conditions in all cases: 72 h
Caco-2 [1] = assay: drug sensitivity score (DSS) for viability; higher = more toxic; extreme values may be limits of the assay
U2OS [2] = assay: as above
HepG2 [3] = assay: as above
Calu-3 [4] = assay: as above
Vero E6 [5] = assay: as above
Caco-2 [6] = assay: relative viability EC50 (midpoint between 100% and the lowest measured viability); higher = less toxic
U2OS [7] = assay: as above
HepG2 [8] = assay: as above
Calu-3 [9] = assay: as above
Vero E6 [10] = assay: as above
Caco-2 [11] = assay: cell viability relative to DMSO; higher = less toxic
U2OS [12] = assay: as above
HepG2 [13] = assay: as above
Calu-3 [14] = assay: as above
Vero E6 [15] = assay: as above

For `C[n+]1cccc(C(=O)[O-])c1` [trigonelline], the drug sensitivity score (Caco-2 [1]) was 0, the drug sensitivity score (U2OS [2]) was 0 and the drug sensitivity score (HepG2 [3]) was 0. The drug sensitivity score (Calu-3 [4]) was 0, the drug sensitivity score (Vero E6 [5]) was 0.7 and the “relative viability EC50” value (Caco-2 [6]) was greater than 10 µM. The “relative viability EC50” value (U2OS [7]) was greater than 10 µM, the “relative viability EC50” value (HepG2 [8]) was greater than 10 µM and the “relative viability EC50” value (Calu-3 [9]) was greater than 10 µM. The “relative viability EC50” value (Vero E6 [10]) was greater than 10 µM, the cell viability (Caco-2 [11]; 1 nM) was 96.8% and the cell viability (Caco-2 [11]; 10 nM) was 83.1%. It also gave a cell viability (Caco-2 [11]; 100 nM) of 92.9%, a cell viability (Caco-2 [11]; 1000 nM) of 94% and a cell viability (Caco-2 [11]; 10000 nM) of 99.3%. The cell viability (U2OS [12]; 1 nM) was 104%, the cell viability (U2OS [12]; 10 nM) was 95.5% and the cell viability (U2OS [12]; 100 nM) was 96.5%. It also gave a cell viability (U2OS [12]; 1000 nM) of 101%, a cell viability (U2OS [12]; 10000 nM) of 97.4% and a cell viability (HepG2 [13]; 1 nM) of 89.2%. For the same compound, the cell viability (HepG2 [13]; 10 nM) was 95.9%, the cell viability (HepG2 [13]; 100 nM) was 91.8% and the cell viability (HepG2 [13]; 1000 nM) was 82.9%. The cell viability (HepG2 [13]; 10000 nM) was 90.5%, the cell viability (Calu-3 [14]; 1 nM) was 102% and the cell viability (Calu-3 [14]; 10 nM) was 103%. For the same compound, the cell viability (Calu-3 [14]; 100 nM) was 105%, the cell viability (Calu-3 [14]; 1000 nM) was 103% and the cell viability (Calu-3 [14]; 10000 nM) was 95.7%. It also gave a cell viability (Vero E6 [15]; 1 nM) of 99.6%, a cell viability (Vero E6 [15]; 10 nM) of 82.5% and a cell viability (Vero E6 [15]; 100 nM) of 106%. It also gave a cell viability (Vero E6 [15]; 1000 nM) of 102% and a cell viability (Vero E6 [15]; 10000 nM) of 76.6%.

`COc1ccc(O)cc1` [mequinol] showed a drug sensitivity score (Caco-2 [1]) of 0, a drug sensitivity score (U2OS [2]) of 0 and a drug sensitivity score (HepG2 [3]) of 1.7. For the same compound, the drug sensitivity score (Calu-3 [4]) was 0, the drug sensitivity score (Vero E6 [5]) was 0 and the “relative viability EC50” value (Caco-2 [6]) was greater than 10 µM. The “relative viability EC50” value (U2OS [7]) was greater than 10 µM, the “relative viability EC50” value (HepG2 [8]) was greater than 10 µM and the “relative viability EC50” value (Calu-3 [9]) was greater than 10 µM. The “relative viability EC50” value (Vero E6 [10]) was greater than 10 µM, the cell viability (Caco-2 [11]; 1 nM) was 97.8% and the cell viability (Caco-2 [11]; 10 nM) was 98.5%. For the same compound, the cell viability (Caco-2 [11]; 100 nM) was 105%, the cell viability (Caco-2 [11]; 1000 nM) was 104% and the cell viability (Caco-2 [11]; 10000 nM) was 97.9%. For the same compound, the cell viability (U2OS [12]; 1 nM) was 100%, the cell viability (U2OS [12]; 10 nM) was 109% and the cell viability (U2OS [12]; 100 nM) was 96.8%. It also gave a cell viability (U2OS [12]; 1000 nM) of 98.7%, a cell viability (U2OS [12]; 10000 nM) of 101% and a cell viability (HepG2 [13]; 1 nM) of 103%. The cell viability (HepG2 [13]; 10 nM) was 90%, the cell viability (HepG2 [13]; 100 nM) was 85.6% and the cell viability (HepG2 [13]; 1000 nM) was 92.9%. The cell viability (HepG2 [13]; 10000 nM) was 79.7%, the cell viability (Calu-3 [14]; 1 nM) was 104% and the cell viability (Calu-3 [14]; 10 nM) was 100%. The cell viability (Calu-3 [14]; 100 nM) was 105%, the cell viability (Calu-3 [14]; 1000 nM) was 94.9% and the cell viability (Calu-3 [14]; 10000 nM) was 92.8%. The cell viability (Vero E6 [15]; 1 nM) was 96.8%, the cell viability (Vero E6 [15]; 10 nM) was 94.1% and the cell viability (Vero E6 [15]; 100 nM) was 105%. For the same compound, the cell viability (Vero E6 [15]; 1000 nM) was 103% and the cell viability (Vero E6 [15]; 10000 nM) was 95.3%.

`CC(C)C[C@H](NC(=O)[C@@H](O)[C@H](N)Cc1ccccc1)C(=O)O` [ubenimex] showed a drug sensitivity score (Caco-2 [1]) of 0, a drug sensitivity score (U2OS [2]) of 0 and a drug sensitivity score (HepG2 [3]) of 0. The drug sensitivity score (Calu-3 [4]) was 0, the drug sensitivity score (Vero E6 [5]) was 0 and the “relative viability EC50” value (Caco-2 [6]) was greater than 10 µM. The “relative viability EC50” value (U2OS [7]) was greater than 10 µM, the “relative viability EC50” value (HepG2 [8]) was greater than 10 µM and the “relative viability EC50” value (Calu-3 [9]) was greater than 10 µM. For the same compound, the “relative viability EC50” value (Vero E6 [10]) was greater than 10 µM, the cell viability (Caco-2 [11]; 1 nM) was 98.2% and the cell viability (Caco-2 [11]; 10 nM) was 108%. The cell viability (Caco-2 [11]; 100 nM) was 95.9%, the cell viability (Caco-2 [11]; 1000 nM) was 103% and the cell viability (Caco-2 [11]; 10000 nM) was 103%. It also gave a cell viability (U2OS [12]; 1 nM) of 97%, a cell viability (U2OS [12]; 10 nM) of 105% and a cell viability (U2OS [12]; 100 nM) of 103%. It also gave a cell viability (U2OS [12]; 1000 nM) of 99.8%, a cell viability (U2OS [12]; 10000 nM) of 98.5% and a cell viability (HepG2 [13]; 1 nM) of 105%. It also gave a cell viability (HepG2 [13]; 10 nM) of 93.4%, a cell viability (HepG2 [13]; 100 nM) of 111% and a cell viability (HepG2 [13]; 1000 nM) of 102%. For the same compound, the cell viability (HepG2 [13]; 10000 nM) was 95.4%, the cell viability (Calu-3 [14]; 1 nM) was 103% and the cell viability (Calu-3 [14]; 10 nM) was 96%. For the same compound, the cell viability (Calu-3 [14]; 100 nM) was 104%, the cell viability (Calu-3 [14]; 1000 nM) was 105% and the cell viability (Calu-3 [14]; 10000 nM) was 104%. The cell viability (Vero E6 [15]; 1 nM) was 101%, the cell viability (Vero E6 [15]; 10 nM) was 98.8% and the cell viability (Vero E6 [15]; 100 nM) was 102%. The cell viability (Vero E6 [15]; 1000 nM) was 98.7% and the cell viability (Vero E6 [15]; 10000 nM) was 101%.
